Experimental findings from patent US8404693B2, “Substituted piperidine compounds and methods of their use” (Adolor Corporation, priority 2003, dated 2013) are described below.

For assay [1], the target named is T1, cloned human μ opioid receptor (Homo sapiens, UniProt P35372).
T1 construct: expressed in transfected cells
In words: [3H]diprenorphine receptor binding, μ opioid receptor. The conditions noted are these: [3H]diprenorphine displacement; read-out: affinity (expressed as Ki value), μ opioid receptor. As for the experimental part: (§1) The potencies of the compounds were determined by testing the ability of a range of concentrations of each compound to inhibit the binding of the non-selective opioid antagonist, [^3H]diprenorphine, to the cloned human μ, κ, and δ opioid receptors, expressed in separate cell lines. IC50 values were obtained by nonlinear analysis of the data using GraphPad Prism version 3.00 for Windows (GraphPad Software, San Diego). Ki values were obtained by Cheng-Prusoff corrections of IC50 values.
(§2) The receptor binding method (DeHaven and DeHaven-Hudkins, 1998) was a modification of the method of Raynor et al. (1994). […] The filters were rinsed 4 times with 1 mL of cold 50 mM Tris HCl, pH 7.8 and radioactivity remaining on the filters determined by scintillation spectroscopy. Nonspecific binding was determined by the minimum values of the titration curves and was confirmed by separate assay wells containing 10 μM naloxone. Ki values were determined by Cheng-Prusoff corrections of IC50 values derived from nonlinear regression fits of 12 point titration curves using GraphPad Prism® version 3.00 for Windows (GraphPad Software, San Diego, Calif.).
(§3) To determine the equilibrium dissociation constant for the inhibitors (Ki), radioligand bound (cpm) in the presence of various concentrations of test compounds was measured. […]

Assay [2] addresses T2, cloned human δ opioid receptor (Homo sapiens, UniProt P41143).
T2 construct: expressed in transfected cells
Put plainly: [3H]diprenorphine receptor binding, δ opioid receptor. The conditions noted are these: [3H]diprenorphine displacement; read-out: affinity (expressed as Ki value), δ opioid receptor. As to the method: as §1, §2, §3

In assay [3] the target is T1, cloned human μ opioid receptor. Put plainly: inhibition of agonist (loperamide)-stimulated [35S]GTPγS binding. In kind it is biochemical. Conditions: receptor not given; mu opioid receptor from context; read-out: in vitro antagonist activity (IC50). As to the method: The potencies of the antagonists were assessed by their abilities to inhibit agonist-stimulated [^35S]GTPγS binding to membranes containing the cloned human μ, κ, or δ opioid receptors. The agonists used were loperamide for the μ opioid receptor, U50488H for the κ opioid receptor, and BW373U86 for the δ opioid receptor.
To determine the IC50 value, which was the concentration to give half-maximal inhibition of agonist-stimulated [^35S]GTPγS binding, the amount of [^35S]GTPγS bound in the presence of a fixed concentration of agonist and various concentrations of antagonist was measured. The fixed concentration of agonist was the EC80 for the agonist, which was the concentration to give 80% of the relative maximum stimulation of [^35S]GTPγS binding. The IC50 value was determined from a best nonlinear regression fit of the data to the following equation,
where Y is the amount of [^35S]GTPγS bound at each concentration of antagonist, Bottom is the calculated amount of [^35S]GTPγS bound in the presence of an infinite concentration of antagonist, Top is the calculated amount of [^35S]GTPγS bound in the absence of added antagonist, X is the logarithm of the concentration of antagonist, and Log IC50 is the logarithm of the concentration of antagonist where the amount of [^35S]GTPγS bound is halfway between Bottom and Top. […]

Assay [4] relates to Mouse Gastrointestinal Transit (GIT). Put plainly: Mouse Gastrointestinal Transit (GIT) Assay. The conditions noted are these: 10 mg/kg p.o., morphine 3 mg/kg s.c. In kind it is in vivo. As for the experimental part: Male Swiss-Webster mice (25-30 g) obtained from Ace Animals (Boyertown, Pa.) were used for all experiments. Mice were housed 4/cage in polycarbonate cages with food and water available ad libitum. Mice were on a 12 hours light:dark schedule with lights on at 6:30 a.m. All experiments were performed during the light cycle. Mice were fasted the night before the experiment, with water available ad libitum.
Mice were administered vehicle (10% DMSO:20% Cremophor EL:70% saline) or test compound (10 mg/kg) orally 2 or 6 hours before determination of GIT. Compounds were administered in a volume of 0.1 ml/10 g of body weight. Morphine (3 mg/kg) or vehicle (0.9% saline) was administered s.c. 35 min prior to determination of GIT. Ten minutes after the morphine treatment, mice were administered 0.2 ml of a charcoal meal orally. The charcoal meal consisted of a slurry of charcoal, flour, and water in the following ratio (1:2:8, w:w:v). Twenty-five minutes after receiving the charcoal meal, the mice were euthanized with CO2 and GIT determined.
GIT is expressed as the % GIT by the following formula:
[formula] For each compound a % Antagonism (% A) value was determined for the 2 and 6 hr antagonist pretreatment. Using the mean % GIT for each treatment group, % A was calculated using the following formula: […]

For assay [5], the target named is T3, cloned human κ opioid receptor (Homo sapiens, UniProt P41145).
T3 construct: expressed in transfected cells
Put plainly: [3H]diprenorphine receptor binding, κ opioid receptor. Conditions: [3H]diprenorphine displacement; read-out: affinity (expressed as Ki value), κ opioid receptor. As to the method:
as §1, §2, §3

T1 sequence (P35372 whole entry): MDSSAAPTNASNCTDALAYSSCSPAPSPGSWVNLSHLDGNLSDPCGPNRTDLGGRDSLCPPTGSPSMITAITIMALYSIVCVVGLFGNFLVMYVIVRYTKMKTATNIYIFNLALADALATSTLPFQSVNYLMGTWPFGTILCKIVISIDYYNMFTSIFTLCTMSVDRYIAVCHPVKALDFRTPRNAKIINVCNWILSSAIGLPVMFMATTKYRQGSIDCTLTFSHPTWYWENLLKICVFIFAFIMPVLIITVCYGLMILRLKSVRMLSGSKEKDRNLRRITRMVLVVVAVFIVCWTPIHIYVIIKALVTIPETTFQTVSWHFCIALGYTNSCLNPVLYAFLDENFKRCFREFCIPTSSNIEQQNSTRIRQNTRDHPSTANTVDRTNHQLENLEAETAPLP
T2 sequence (P41143 whole entry): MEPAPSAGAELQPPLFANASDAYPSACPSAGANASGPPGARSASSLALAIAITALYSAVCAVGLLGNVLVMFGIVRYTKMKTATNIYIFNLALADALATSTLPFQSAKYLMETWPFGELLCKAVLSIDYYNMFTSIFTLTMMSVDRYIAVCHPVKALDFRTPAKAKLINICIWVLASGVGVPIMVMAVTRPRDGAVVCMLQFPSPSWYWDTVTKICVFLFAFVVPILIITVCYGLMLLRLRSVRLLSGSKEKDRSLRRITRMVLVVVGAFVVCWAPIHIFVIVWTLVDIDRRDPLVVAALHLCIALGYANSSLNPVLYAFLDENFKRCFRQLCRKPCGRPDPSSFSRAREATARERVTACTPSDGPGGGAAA
T3 sequence (P41145 whole entry): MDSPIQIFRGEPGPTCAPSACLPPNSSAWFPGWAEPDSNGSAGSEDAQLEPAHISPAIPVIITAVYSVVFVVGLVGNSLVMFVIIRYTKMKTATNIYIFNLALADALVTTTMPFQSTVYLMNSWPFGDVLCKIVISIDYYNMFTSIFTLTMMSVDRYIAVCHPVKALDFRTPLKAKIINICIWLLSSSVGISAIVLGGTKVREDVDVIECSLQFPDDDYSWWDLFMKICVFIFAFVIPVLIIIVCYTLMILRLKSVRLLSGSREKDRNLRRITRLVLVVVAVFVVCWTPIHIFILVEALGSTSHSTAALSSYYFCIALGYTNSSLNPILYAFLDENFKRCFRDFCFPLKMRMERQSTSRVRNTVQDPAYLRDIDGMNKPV

As to `C[C@H]1CN(CC(Cc2ccccc2)C(=O)NCC(=O)O)CC[C@@]1(C)c1cccc(C(=O)O)c1` (stereo in doubt) [Example 28, [[2(R)-[[4(R)-(3-carboxyphenyl)-3(R),4-dimethyl-1-piperidin-yl]methyl]-1-oxo-3-phenylpropyl]amino]acetic Acid], the Ki is 19 nM in assay [1] and 1330 nM in assay [2]. In addition, the IC50 in assay [3] turned out to be 3.4 nM. Besides, the “% antagonism” value in assay [4] (2 h pretreatment) was found to be 86%; in assay [4] (6 h pretreatment), 71%.

Turning to `C[C@H]1CN(C[C@H](Cc2ccccc2)C(=O)NCC(=O)O)CC[C@@]1(C)c1cccc(C(N)=O)c1` [Example 58, [[2(R)-[[4(R)-(3-amidophenyl)-3(R),4-dimethyl-1-piperidinyl]methyl]-1-oxo-3-phenylpropyl]amino]acetic Acid], the Ki came out at 2.6 nM in assay [1], 85 nM in assay [2] and 1080 nM in assay [5]. In addition, the IC50 in assay [3] is 3 nM. Besides, the “% antagonism” value in assay [4] (2 h pretreatment) worked out at 92%; in assay [4] (6 h pretreatment), 61%.
